The values that follow come from US20240299321A1, “METHODS TO SENSITIZE CANCER CELLS AND STANDARDIZED SCREENING ASSAY FOR IMMUNOTHERAPY” (THE TRUSTEES OF INDIANA UNIVERSITY, priority 2020, published 2024).

In one assay the test system is MDA-MB-468 cells. Kind of assay: Gene expression in MDA-MB-468 cells (quantitative RT-PCR). The assay is classed as cell-based, human. Conditions: BML-210 1.0 μM, FIG. 4B.
The subject of a further assay is EO771 tumors. Kind of assay: CyTOF immune profile of EO771 tumors. The assay is classed as in vivo, C57BL/6 mice. The method, then:
Animal studies: All animal experiments were performed in accordance with the National Institutes of Health's Animal Use Guidelines and protocols approved by the Animal Care and Use Committee of Indiana University School of Medicine. […] Each mouse was injected with a total of 2×10^5 tumor cells. 5 mice were used in each group. Tumors were measured in two dimensions using a manual caliper. Tumor volume was calculated using the following formula: V=0.5×length×width×width. Tumor volume was measured every 3 days. Tumors were harvested 22 days after injection. The tumor growth, volume and weight were analyzed. To evaluate the anti-tumor effect of drugs in immunocompetent C57BL/6 mice and immunodeficient nude (NU/J) mice, 2×10^5 EO771 cells were orthotopically injected into fat pad of the 4th mammary gland in female mice. […] For CD4/CD8 depletion experiment, the tumor-bearing mice were randomly divided into 7 groups (n=8 mice/group) including isotype control (rat IgG2a, Bioxcell), isotype control+CUDC-101, isotype control+BML-210, anti-CD8 (Clone: 53-6.72, Bioxcell)+CUDC-101, anti-CD8+BML-210, anti-CD4 (Clone: GK1.5, Bioxcell)+CUDC-101, or anti-CD4+BML-210. Intraperitoneal injection of inhibitors (20 mg kg-1) and anti-CD4/CD8 (10 mg kg-1) were administrated to the mice by 3 times/week for 2 weeks. The tumors were harvested at day 18 (NU/J mice) or day 28 (C57BL/6 mice) for further analyses. In immune checkpoint blockade experiment, 2×10^5 EO771 cells were orthotopically injected into fat pad of the 4th mammary gland in female C57BL/6 mice. From day 10, the tumor-bearing mice were randomly divided into each treatment group (n=8 mice/group), and the mice were treated with IgG2a isotype control antibody (clone 2A3, Bioxcell), BML-210 (20 mg kg-1), anti-PD-1 (200 μg/mouse, Bioxcell), or BML-210 and anti-PD-1 combo. The treatment was done 3 times/week for 2 weeks. Tumors were harvested at day 26 post injection and the tumors were analyzed by IHC staining, flow cytometry, ELISA or CyTOF assay. Mass Cytometry (CyTOF): EO771 tumors in C57BL/6 mice were harvested and dissociated into single cells. 1×10^6 single cells from each sample were suspended in ice-cold buffer (PBS with 0.5% BSA and 0.02% Azide). The antibody panel (Table 1) was used for sample staining. Samples were analyzed using the CyTOF 2 Mass Cytometer (Fluidigm). All the samples were done on bead-based normalization before analysis on Cytobank. CyTOF data were analyzed using viSNE analysis64 in the Cytobank platform. The viSNE analysis uses the Barnes-Hut implementation of the t-Distributed Stochastic Neighbor embedding (tSNE) algorithm. The cell populations were visualized on viSNE as an overlay plot.

A further assay relates to mouse melanoma model. Conditions: reported; cited from earlier work.

With `Nc1ccccc1NC(=O)CCCCCCC(=O)Nc1ccccc1` [BML-210], in the assay on MDA-MB-468 cells, the “expression of antigen processing and presentation DEGs (qPCR)” value is listed as “most of DEGs had higher expression levels”. Also, in the assay on EO771 tumors (CD11b+Ly6G+Ly6ClowF4/80−), the “infiltration of PMN-MDSCs” value is on record as “decreased infiltration”. For the same molecule, the Mo-MDSCs result with EO771 tumors (CD11b+Ly6G-Ly6C+F4/80−) is “increased”. Further, the “tumor-associated macrophage (TAM M1 and TAM M2) populations” value in the assay on EO771 tumors (mouse, in vivo) is on record as “No significant differences”. In the assay with EO771 tumors (tumors 26 days post implantation), the “infiltration of immune lymphocytes, particularly CD8+ T effector cells and NK cells” value is on record as “notably enhanced infiltration”.

On to `c1ccc([C@@H]2C[C@H]2NC2CCNCC2)cc1` [GSK-LSD1], for which the “CD8+ T cell infiltration and anti-tumor response” value in the assay with mouse melanoma model was “promote CD8+ T cell infiltration and anti-tumor response”.
